The pIC50 is the negative decadic logarithm of the IC50, by convention in mol/L. Lower therefore signals a large IC50.

pIC50: −log10 of the molar value. A value given as a limit tells only on which side of the number the result lay.

The target of this assay is T1, Syk (Homo sapiens, UniProt P43405).
T1 construct: Purified Syk catalytic domain (aa 356-635 with a C-terminal His-tag purified in-house); His-tag (C); made in house
As to the kind of experiment: In vitro Syk kinase activity measured by trFRET. Conditions: Syk catalytic domain, 0.001 mM ATP. Type of assay: biochemical. As to the method: In Vitro Syk Kinase Activity Measured by Time-Resolved Fluorescence Resonance Energy Transfer (trFRET)
After about 60 min incubation at rt, the reaction was quenched by addition of EDTA (final concentration: 100 mM) and developed by addition of revelation reagents (final approximate concentrations: 30 mM HEPES pH 7.0, 0.06% BSA, 0.006% Tween-20, 0.24 M KF, 80 ng/mL PT66K (europium labeled anti-phosphotyrosine antibody cat #61T66KLB Cisbio, Bedford, Mass.) and 0.6 μg/mL SAXL (Phycolink streptavidin-allophycocyanin acceptor, cat #PJ25S, Prozyme, San Leandro, Calif.). The developed reaction was incubated in the dark either at about 4° C. for about 14 h or for about 60 min at rt, then read via a time-resolved fluorescence detector (Rubystar, BMG) using a 337 nm laser for excitation and monitoring emission wavelengths at 665 nm. Within the linear range of the assay, the observed signal at 665 nm was directly related to phosphorylated product and can be used to calculate the IC50 values.

`COc1ccc(-c2nc([C@H]3C[C@@H](O)CN3C(C)=O)n3c2cnc2[nH]ccc23)cc1` [Example #F.1.4, 1-((2R,4R)-4-hydroxy-2-(3-(4-methoxyphenyl)-6H-imidazo[1,5-a]pyrrolo[2,3-e]pyrazin-1-yl)pyrrolidin-1-yl)ethanone] gave a pIC50 of 7.52 to 8.00.
`CC(=O)N1C[C@H](O)C[C@@H]1c1nc(-c2ccc(C(=O)N3CCC(F)(F)CC3)cc2)c2cnc3[nH]ccc3n12` [F.1.1, 1-((2R,4R)-2-(3-(4-(4,4-difluoropiperidine-1-carbonyl)phenyl)-6H-imidazo[1,5-a]pyrrolo[2,3-e]pyrazin-1-yl)-4-hydroxypyrrolidin-1-yl)ethanone] showed a negative logarithm of the IC50 (pIC50) of under 7.00.
In turn, `CC(=O)N1C[C@H](O)C[C@@H]1c1nc(-c2ccc(N3CCCCC3)cc2)c2cnc3[nH]ccc3n12` [F.1.1.13, 1-((2R,4R)-4-hydroxy-2-(3-(4-(piperidin-1-yl)phenyl)-6H-imidazo[1,5-a]pyrrolo[2,3-e]pyrazin-1-yl)pyrrolidin-1-yl)ethanone] showed a negative-log IC50 (pIC50) of over 8.00.
For the compound `CO[C@H](C)c1ccc(-c2nc([C@H]3C[C@@H](O)CN3C(C)=O)n3c2cnc2[nH]ccc23)cc1` [F.1.2, 1-((2R,4R)-4-hydroxy-2-(3-(4-((R)-1-methoxyethyl)phenyl)-6H-imidazo[1,5-a]pyrrolo[2,3-e]pyrazin-1-yl)pyrrolidin-1-yl)ethanone], the pIC50 was 7.52 to 8.00.
`CO[C@@H](C)c1ccc(-c2nc([C@H]3C[C@@H](O)CN3C(C)=O)n3c2cnc2[nH]ccc23)cc1` [F.1.3, 1-((2R,4R)-4-hydroxy-2-(3-(4-((S)-1-methoxyethyl)phenyl)-6H-imidazo[1,5-a]pyrrolo[2,3-e]pyrazin-1-yl)pyrrolidin-1-yl)ethanone]: the pIC50 is over 8.00.
The compound `CC(=O)N1C[C@H](O)C[C@@H]1c1nc(-c2ccc(C(C)(C)O)c(F)c2)c2cnc3[nH]ccc3n12` [F.1.5, 1-((2R,4R)-2-(3-(3-fluoro-4-(2-hydroxypropan-2-yl)phenyl)-6H-imidazo[1,5-a]pyrrolo[2,3-e]pyrazin-1-yl)-4-hydroxypyrrolidin-1-yl)ethanone] showed a pIC50 of 7.52 to 8.00.
`CC(=O)N1C[C@H](O)C[C@@H]1c1nc(-c2ccc3c(c2)OCCO3)c2cnc3[nH]ccc3n12` [F.1.6, 1-((2R,4R)-2-(3-(2,3-dihydrobenzo[b][1,4]dioxin-6-yl)-6H-imidazo[1,5-a]pyrrolo[2,3-e]pyrazin-1-yl)-4-hydroxypyrrolidin-1-yl)ethanone] showed a negative logarithm of the IC50 (pIC50) of 7.00 to 7.52.
`CC(=O)N1C[C@H](O)C[C@@H]1c1nc(-c2ccc(N3CCOC(C)C3)cc2)c2cnc3[nH]ccc3n12` (stereo partly drawn) [F.1.7, 1-((2R,4R)-4-hydroxy-2-(3-(4-(2-methylmorpholino)phenyl)-6H-imidazo[1,5-a]pyrrolo[2,3-e]pyrazin-1-yl)pyrrolidin-1-yl)ethanone] showed a negative-log IC50 (pIC50) of over 8.00.
The value for `CC(=O)N1C[C@H](O)C[C@@H]1c1nc(-c2ccc(N3CCC(F)(F)CC3)cc2)c2cnc3[nH]ccc3n12` [F.1.8, 1-((2R,4R)-2-(3-(4-(4,4-difluoropiperidin-1-yl)phenyl)-6H-imidazo[1,5-a]pyrrolo[2,3-e]pyrazin-1-yl)-4-hydroxypyrrolidin-1-yl)ethanone] was over 8.00.
For `CC(=O)N1C[C@H](O)C[C@@H]1c1nc(-c2ccc(N3CC(F)(F)C3)cc2)c2cnc3[nH]ccc3n12` [F.1.9, 1-((2R,4R)-2-(3-(4-(3,3-difluoroazetidin-1-yl)phenyl)-6H-imidazo[1,5-a]pyrrolo[2,3-e]pyrazin-1-yl)-4-hydroxypyrrolidin-1-yl)ethanone], the negative-log IC50 (pIC50) was over 8.00.
Then `CC(=O)N1C[C@H](O)C[C@@H]1c1nc(-c2ccc(N3CCOCC3)cc2)c2cnc3[nH]cc(Cl)c3n12` [F.1.10, 1-((2R,4R)-2-(8-chloro-3-(4-morpholinophenyl)-6H-imidazo[1,5-a]pyrrolo[2,3-e]pyrazin-1-yl)-4-hydroxypyrrolidin-1-yl)ethanone], with over 8.00.
For `CCOc1ccc(-c2nc([C@H]3C[C@@H](O)CN3C(C)=O)n3c2cnc2[nH]cc(Cl)c23)cc1` [F.1.11, 1-((2R,4R)-2-(8-chloro-3-(4-ethoxyphenyl)-6H-imidazo[1,5-a]pyrrolo[2,3-e]pyrazin-1-yl)-4-hydroxypyrrolidin-1-yl)ethanone], the pIC50 is 7.52 to 8.00.
Consider `CC(=O)N1C[C@H](O)C[C@@H]1c1nc(-c2ccc(OCCN3CCOCC3)cc2)c2cnc3[nH]ccc3n12` [F.1.12, 1-((2R,4R)-4-hydroxy-2-(3-(4-(2-morpholinoethoxy)phenyl)-6H-imidazo[1,5-a]pyrrolo[2,3-e]pyrazin-1-yl)pyrrolidin-1-yl)ethanone], for which the pIC50 was 7.52 to 8.00.
In turn, `COc1ccc(-c2nc([C@H]3C[C@@H](O)CN3C(C)=O)n3c2cnc2[nH]cc(C)c23)cc1` [F.1.14] showed a negative-log IC50 (pIC50) of 7.00 to 7.52.
`CC(=O)N1C[C@H](O)C[C@@H]1c1nc(-c2ccc(C(C)(C)O)cc2)c2cnc3[nH]ccc3n12` [F.1.15, 1-((2R,4R)-4-hydroxy-2-(3-(4-(2-hydroxypropan-2-yl)phenyl)-6H-imidazo[1,5-a]pyrrolo[2,3-e]pyrazin-1-yl)pyrrolidin-1-yl)ethanone] gave a pIC50 of over 8.00.
On to `CC(=O)N1C[C@H](O)C[C@@H]1c1nc(-c2ccc(C(C)(C)C#N)cc2)c2cnc3[nH]ccc3n12` [F.1.16, 2-(4-(1-((2R,4R)-1-acetyl-4-hydroxypyrrolidin-2-yl)-6H-imidazo[1,5-a]pyrrolo[2,3-e]pyrazin-3-yl)phenyl)-2-methylpropanenitrile], for which the pIC50 was over 8.00.
Then `CC(=O)N1C[C@H](O)C[C@@H]1c1nc(-c2ccc(N3CCOCC3)cc2)c2cnc3[nH]ccc3n12` [F.1.17, 1-((2R,4R)-4-hydroxy-2-(3-(4-morpholinophenyl)-6H-imidazo[1,5-a]pyrrolo[2,3-e]pyrazin-1-yl)pyrrolidin-1-yl)ethanone], with over 8.00; and `CC(=O)N1C[C@H](O)C[C@@H]1c1nc(-c2ccc(C3CCOCC3)cc2)c2cnc3[nH]ccc3n12` [F.1.18, 1-((2R,4R)-4-hydroxy-2-(3-(4-(tetrahydro-2H-pyran-4-yl)phenyl)-6H-imidazo[1,5-a]pyrrolo[2,3-e]pyrazin-1-yl)pyrrolidin-1-yl)ethanone], with over 8.00; and `CC(=O)N1C[C@H](O)C[C@@H]1c1nc(-c2ccc3c(c2)CCCO3)c2cnc3[nH]ccc3n12` [F.1.19, 1-((2R,4R)-2-(3-(chroman-6-yl)-6H-imidazo[1,5-a]pyrrolo[2,3-e]pyrazin-1-yl)-4-hydroxypyrrolidin-1-yl)ethanone], with 7.52 to 8.00.
The compound `COc1ccc(-c2nc([C@H]3C[C@@H](O)CN3C(C)=O)n3c2cnc2[nH]ccc23)cc1OC` [F.1.20, 1-((2R,4R)-2-(3-(3,4-dimethoxyphenyl)-6H-imidazo[1,5-a]pyrrolo[2,3-e]pyrazin-1-yl)-4-hydroxypyrrolidin-1-yl)ethanone] showed a pIC50 of over 8.00.
Then `COCCOc1ccc(-c2nc([C@H]3C[C@@H](O)CN3C(C)=O)n3c2cnc2[nH]ccc23)cc1` [F.1.21, 1-((2R,4R)-4-hydroxy-2-(3-(4-(2-methoxyethoxy)phenyl)-6H-imidazo[1,5-a]pyrrolo[2,3-e]pyrazin-1-yl)pyrrolidin-1-yl)ethanone], with 7.52 to 8.00.
`COc1ccc(-c2nc([C@H]3C[C@@H](O)CN3C(C)=O)n3c2cnc2[nH]ccc23)cc1C` [F.1.22, 1-((2R,4R)-4-hydroxy-2-(3-(4-methoxy-3-methylphenyl)-6H-imidazo[1,5-a]pyrrolo[2,3-e]pyrazin-1-yl)pyrrolidin-1-yl)ethanone] had a pIC50 of 7.52 to 8.00.
As for `CC(=O)N1C[C@H](O)C[C@@H]1c1nc(-c2ccc(OC(C)C)cc2)c2cnc3[nH]ccc3n12` [F.1.23, 1-((2R,4R)-4-hydroxy-2-(3-(4-isopropoxyphenyl)-6H-imidazo[1,5-a]pyrrolo[2,3-e]pyrazin-1-yl)pyrrolidin-1-yl)ethanone], the pIC50 is 7.52 to 8.00.
The compound `CC(=O)N1C[C@H](O)C[C@@H]1c1nc(-c2ccc3c(c2)OCO3)c2cnc3[nH]ccc3n12` [F.1.24, 1-((2R,4R)-2-(3-(benzo[d][1,3]dioxol-5-yl)-6H-imidazo[1,5-a]pyrrolo[2,3-e]pyrazin-1-yl)-4-hydroxypyrrolidin-1-yl)ethanone] showed a negative-log IC50 (pIC50) of under 7.00.
Consider `COc1ccc(-c2nc([C@H]3C[C@@H](O)CN3C(C)=O)n3c2cnc2[nH]ccc23)cc1F` [F.1.26, 1-((2R,4R)-2-(3-(3-fluoro-4-methoxyphenyl)-6H-imidazo[1,5-a]pyrrolo[2,3-e]pyrazin-1-yl)-4-hydroxypyrrolidin-1-yl)ethanone], for which the negative-log IC50 (pIC50) is 7.00 to 7.52.
Turning to `CC(=O)N1C[C@H](O)C[C@@H]1c1nc(-c2ccc(C3(O)CCC3)cc2)c2cnc3[nH]ccc3n12` [F.1.27, 1-((2R,4R)-4-hydroxy-2-(3-(4-(1-hydroxycyclobutyl)phenyl)-6H-imidazo[1,5-a]pyrrolo[2,3-e]pyrazin-1-yl)pyrrolidin-1-yl)ethanone], the pIC50 was 7.52 to 8.00.
On to `CCOc1ccc(-c2nc([C@H]3C[C@@H](O)CN3C(C)=O)n3c2cnc2[nH]ccc23)cc1C` [F.1.28, 1-((2R,4R)-2-(3-(4-ethoxy-3-methylphenyl)-6H-imidazo[1,5-a]pyrrolo[2,3-e]pyrazin-1-yl)-4-hydroxypyrrolidin-1-yl)ethanone], for which the pIC50 is over 8.00.
In the case of `CC(=O)N1C[C@H](O)C[C@@H]1c1nc(-c2ccc3c(c2)NCCO3)c2cnc3[nH]ccc3n12` [F.1.29, 1-((2R,4R)-2-(3-(3,4-dihydro-2H-benzo[b][1,4]oxazin-6-yl)-6H-imidazo[1,5-a]pyrrolo[2,3-e]pyrazin-1-yl)-4-hydroxypyrrolidin-1-yl)ethanone], the negative logarithm of the IC50 (pIC50) was 7.52 to 8.00.
